Tests used:
M. alcahphilum = experiment: Antimicrobial activity of Ptet inducer anhydrotetracycline, evaluated on methanol; assay type: cell-based, Methylotuvimicrobium alcaliphilum
Method: Luria-Bertani (LB) broth and agar plates are routinely used to culture E. coli cells at 37° C. For routine cultivation of M. alcahphilum strain WT (wild type) and its derivatives, Pi (π) media with 3% (w/v) NaCl is used as described in Collins and Kaluzhnaya.^56 When needed, kanamycin (Kan) is added to the growth medium at 100 μg/mL for ts. alcahphilum and 50 μg/mL for E. coli cultures. Ampicillin is added to the growth medium at 100 μg/mL. M alcahphilum cell cultures are grown as batch cultures, either 4 mL culture in 20 mL anaerobic glass tubes or 10 mL culture in 50 mL serum vials, under a methane (99.9%; Airgas): air atmosphere (1:1). Cell cultures are incubated at 30° shaking at 220 rpm. Cell growth is measured as optical density (OD 600 nm) using Spectronic 200E spectroscope at time points mentioned in results and discussion. Single colony isolates and transformant selections are performed on Pi media agar plates incubated in anaerobic jars (Oxoid; Remel) under a methane-air atmosphere (1:1). For M. alcahphilum (pDA17) induction, antimicrobial activity of Ptet inducer, anhydrotetracycline (aTC) is first evaluated (FIG. 7) on methanol, it is observed that aTC antimicrobial effect on M. alcahphilum is apparent at concentration >2.5 μg/mL. Thus, based on the observation and previous report 33 , concentration of 1 μg/mL aTC is used for optimal gene expression. […]

E. coli = conditions: literature; cited from earlier work
[1] = tested on: M. alcaliphilum strain DSM19304 (WT); experiment: Inhibitory effect of rhamnolipids on growth (OD600) of M. alcaliphilum wild type on CH4; assay type: cell-based, Methylotuvimicrobium alcaliphilum
Text: M. alcaliphilum converts methane by sequential oxidation to formaldehyde, which enters the central carbon metabolism through the RUMP pathway^39. M. alcaliphilum produces high amounts of glycogen, sucrose and ectoine with smaller amounts of lactate, formate, succinate and no known reports of RLs^38,40,41. Rhamnolipids are used as biocontrol/anti-microbial agents, and increasing rhamnolipid concentrations are found to negatively impact growth of Gram-negative and Gram-positive heterologous hosts, E. coli, Bacillus subtilis and Corynebacterium glutamicum^23. Therefore, M. alcaliphilum growth is tested in the presence of RLs. […] The RL toxicity to M. alcaliphilum is much higher than reported concentrations in other Gram-negative host like E. coli (>90 g/L). The toxicity of RLs to M. alcaliphilum required adaptive evolution to permit the strain to produce rhamnolipids.
Luria-Bertani (LB) broth and agar plates are routinely used to culture E. coli cells at 37° C. For routine cultivation of M. alcahphilum strain WT (wild type) and its derivatives, Pi (π) media with 3% (w/v) NaCl is used as described in Collins and Kaluzhnaya.^56 When needed, kanamycin (Kan) is added to the growth medium at 100 μg/mL for ts. alcahphilum and 50 μg/mL for E. coli cultures. Ampicillin is added to the growth medium at 100 μg/mL. M alcahphilum cell cultures are grown as batch cultures, either 4 mL culture in 20 mL anaerobic glass tubes or 10 mL culture in 50 mL serum vials, under a methane (99.9%; Airgas): air atmosphere (1:1). Cell cultures are incubated at 30° shaking at 220 rpm. Cell growth is measured as optical density (OD 600 nm) using Spectronic 200E spectroscope at time points mentioned in results and discussion. Single colony isolates and transformant selections are performed on Pi media agar plates incubated in anaerobic jars (Oxoid; Remel) under a methane-air atmosphere (1:1). For M. alcahphilum (pDA17) induction, antimicrobial activity of Ptet inducer, anhydrotetracycline (aTC) is first evaluated (FIG. 7) on methanol, it is observed that aTC antimicrobial effect on M. alcahphilum is apparent at concentration >2.5 μg/mL. Thus, based on the observation and previous report 33 , concentration of 1 μg/mL aTC is used for optimal gene expression. M. alcahphilum (pDA17) cultures are induced with anhydrotetracycline (1 μg/mL) at time of inoculation^33.

[2] = tested on: M. alcaliphilum strain DASS; experiment: Rhamnolipid tolerance of the adapted strain after adaptive laboratory evolution; assay type: cell-based, Methylotuvimicrobium alcaliphilum
Method: A course of adaptive laboratory evolution to allow M. alcaliphilum to grow on CH4 in the RLs is followed for four months. During this adaptation, M. alcaliphilum strain DSM19304 (hereafter referred as WT, wild type) is subjected to gradually increasing RL concentration starting from 0.5 g/L to 5 g/L (FIG. 2B). At the end of multiple transfers over a period of four months, an M. alcaliphilum strain tolerant to RLs (strain DASS) is obtained.
M. alcahphilum strain DSM19304 is grown in batch cultures of 10 mL Pi media in 50 mL serum vials under a methane-air atmosphere at 30° C. with agitation at 200 rpm. To adapt the cells to grow in the presence of RLs, 0.5 g/L RL (90% mono-RL, Millipore Sigma) is supplemented to the starting cell culture. The concentration of RLs is increased gradually and stepwise (1, 1.5, 2, 3, 4 and 5 g/L) to achieve a final strain of M. alcahphilum tolerant to 5 g/L RL. A 0.1% inoculum is manually transferred from a growing batch culture to a fresh culture in 48-60h. The RL concentration in the media is increased to next higher concentration when the OD 600 nm at 48 h of the growing batch culture with RL reached similar OD600 to WT (>1.0) at the end of 48 h. After the adaptation, single colonies of M. alcahphilum strain DASS are isolated on Pi media agar plates. Multiple single colony isolates are confirmed to be M. alcahphilum via 16S rRNA sequencing to rule out possibility of co-contaminants. No differences are observed in growth of multiple single colonies that are tested, one clone is selected for further analysis and plasmid transformation.

| Compound | concentration at which antimicrobial effect is apparent (M. alcahphilum) [µg/mL] | reported toxic concentration (E. coli) [g/L] | growth inhibition ([1]; 1 g/L RL amendment, 36 hours of culture) | concentration inhibitory to growth ([1]; M. alcaliphilum DSM19304) [g/L] | reduction in final optical density ([1]; medium amended with 0.1 g/L RL, 36 hours of culture) [%] | MIC ([1]; parent strain DSM19304) [µg/mL] | concentration of rhamnolipids that cannot be tolerated ([1]; strain DSM19304, surfactant effects) [g/L] | fold higher concentration in which the adapted strain grows compared to parent strain ([2]; DASS vs parent strain) [fold] | tolerated rhamnolipid concentration ([2]; evolved strain DASS, grown on CH4, listed as RL) [g/L] | growth with RL in the absence of CH4 (RL as carbon source) ([2]; strain DASS, 5 g/L RL, no CH4) |
| --- | --- | --- | --- | --- | --- | --- | --- | --- | --- | --- |
| Cc1c2c(c(O)c3c(O)cccc13)C(=O)[C@]1(O)C(=O)C(C(N)=O)=C(O)[C@@H](N(C)C)[C@@H]1C2 [aTC, anhydrotetracycline] | > 2.5 | – | – | – | – | – | – | – | – | – |
| rhamnolipids | – | > 90 | almost complete inhibition | < 0.05 | 50 | 500 | 0.5 | 10 | 5 | did not promote growth |

From US20230399666A1, “METHODS AND COMPOSITIONS FOR THE PRODUCTION OF RHAMNOLIPID” (THE REGENTS OF THE UNIVERSITY OF CALIFORNIA, priority 2022, published 2023)
